Reference: US20090062251A1, “Novel Compounds 002” (ASTRAZENECA AB, priority 2007, published 2009)

Experiments:
[1] = target: T1, Human CB1 receptor (hCB1) (Homo sapiens, UniProt P21554); test: hCB1 receptor binding (3H-CP55,940 displacement); settings: hCB1 membranes, Ki=IC50/(1+[rad]/Kd)
T1 construct: purchased Receptor Biology
Method: hCB1 and hCB2 Receptor Binding
Human CB1 receptor from Receptor Biology (hCB1) or human CB2 receptor from BioSignal (hCB2) membranes are thawed at 37° C., passed 3 times through a 25-gauge blunt-end needle, diluted in the cannabinoid binding buffer (50 mM Tris, 2.5 mM EDTA, 5 mM MgCl2, and 0.5 mg/mL BSA fatty acid free, pH 7.4) and aliquots containing the appropriate amount of protein are distributed in 96-well plates. […] The total and non-specific binding are determined in the absence and presence of 0.2 μM of HU210 respectively. The plates are vortexed and incubated for 60 minutes at room temperature, filtered through Unifilters GF/B (presoaked in 0.1% polyethyleneimine) with the Tomtec or Packard harvester using 3 mL of wash buffer (50 mM Tris, 5 mM MgCl2, 0.5 mg BSA pH 7.0). The filters are dried for 1 hour at 55° C. The radioactivity (cpm) is counted in a TopCount (Packard) after adding 65 μl/well of MS-20 scintillation liquid.
Based on the above assays, the dissociation constant (Ki) for a particular compound of the invention towards a particular receptor is determined using the following equation:
[rad] is a standard or reference radioactive ligand concentration at that moment; and
Kd is the dissociation constant of the radioactive ligand towards the particular receptor.

[2] = target: T1, Human CB1 receptor (hCB1); test: hCB1 GTPγS binding; type: biochemical; settings: for EC50: hCB1 membranes, GTPγ35S, 10-point dose-response; for Emax: maximal stimulated binding determined with 10 μM Win 55,212-2
In short: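 Human CB1 membranes in 50 mM Hepes, 100 mM NaCl, 1 mM EDTA, 5 mM MgCl2, 0.1% BSA, pH 7.4 were preincubated 5 min with GDP (30 μM final). Basal and maximal binding were defined without or with 10 μM Win 55,212-2; incubation 60 min RT; filter-bound radioactivity counted. Antagonist reversal used fixed antagonist with agonist curve, or fixed agonist with antagonist curve.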

T1 sequence (P21554 whole entry): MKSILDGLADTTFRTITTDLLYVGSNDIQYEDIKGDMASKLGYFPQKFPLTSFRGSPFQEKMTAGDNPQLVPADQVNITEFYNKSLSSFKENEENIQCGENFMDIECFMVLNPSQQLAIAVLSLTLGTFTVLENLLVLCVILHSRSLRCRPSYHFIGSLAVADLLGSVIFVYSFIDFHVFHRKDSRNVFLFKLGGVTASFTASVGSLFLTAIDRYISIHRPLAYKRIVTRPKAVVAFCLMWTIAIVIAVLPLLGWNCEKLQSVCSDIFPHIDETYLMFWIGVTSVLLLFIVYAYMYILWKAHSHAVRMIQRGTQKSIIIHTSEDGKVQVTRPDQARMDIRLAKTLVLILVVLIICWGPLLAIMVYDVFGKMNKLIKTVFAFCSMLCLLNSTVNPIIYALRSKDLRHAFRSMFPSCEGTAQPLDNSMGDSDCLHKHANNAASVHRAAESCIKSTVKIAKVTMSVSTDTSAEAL

Compound	Ki [1]	EC50 [2]	Emax [2]
CCN(CC(=O)NCCC#N)C(=O)c1ccc2c(c1)c1c(n2S(=O)(=O)CC)CCC(C2CCOCC2)C1 (stereo not drawn) [N-(2-cyanoethylcarbamoylmethyl)-N-ethyl-9-ethylsulfonyl-6-(oxan-4-yl)-5,6,7,8-tetrahydrocarbazole-3-carboxamide]	115 nM	120 nM	115%
Cn1c2c(c3cc(C(=O)N4CCC(C(=O)NCCF)C4)ccc31)CC(C1CCOCC1)CC2 (stereo not drawn) [N-(2-fluoroethyl)-1-[9-methyl-6-(oxan-4-yl)5,6,7,8-tetrahydrocarbazole-3-carbonyl]pyrrolidine-3-carboxamide]	126 nM	263 nM	121%
CN(CC(=O)NCCF)C(=O)c1ccc2c(c1)c1c(n2C)CCC(C2CCOCC2)C1 (stereo not drawn) [N-(2-fluoroethylcarbamoylmethyl)-N,9-dimethyl-6-(oxan-4-yl)-5,6,7,8-tetrahydrocarbazole-3-carboxamide]	291 nM	721 nM	110%
CCN(CC(=O)NC1CC1)C(=O)c1ccc2c(c1)c1c(n2CC2CC2)CCC(C2CCOCC2)C1 (stereo not drawn) [N-(cyclopropylcarbamoylmethyl)-9-(cyclopropylmethyl)-N-ethyl-6-(oxan-4-yl)-5,6,7,8-tetrahydrocarbazole-3-carboxamide]	21.2 nM	34.2 nM	91%
CCS(=O)(=O)n1c2c(c3cc(C(=O)N(C)CC(=O)NC4CC4)ccc31)CC(C1CCOCC1)CC2 (stereo not drawn) [N-(cyclopropylcarbamoylmethyl)-9-ethylsulfonyl-N-methyl-6-(oxan-4-yl)-5,6,7,8-tetrahydrocarbazole-3-carboxamide]	18.1 nM	18.8 nM	116%
Cn1c2c(c3cc(C(=O)N4CCCC(NC(=O)C5CC5)C4)ccc31)CC(C1CCOCC1)CC2 (stereo not drawn) [N-[1-[9-methyl-6-(oxan-4-yl)5,6,7,8-tetrahydrocarbazole-3-carbonyl]-3-piperidyl]cyclopropanecarboxamide]	26.7 nM	40.6 nM	115%
CCC(=O)NC1CCCN(C(=O)c2ccc3c(c2)c2c(n3C)CCC(C3CCOCC3)C2)C1 (stereo not drawn) [N-[1-[9-methyl-6-(oxan-4-yl)5,6,7,8-tetrahydrocarbazole-3-carbonyl]-3-piperidyl]propanamide]	63.2 nM	263 nM	122%
Cn1c2c(c3cc(C(=O)N4CCC(NC(=O)C5CC5)CC4)ccc31)CC(C1CCOCC1)CC2 (stereo not drawn) [N-[1-[9-methyl-6-(oxan-4-yl)5,6,7,8-tetrahydrocarbazole-3-carbonyl]-4-piperidyl]cyclopropanecarboxamide]	> 3480 nM	> 30000 nM	> 30%
CN(CCN(C)C(=O)c1ccc2c(c1)c1c(n2C)CCC(C2CCOCC2)C1)C(=O)NC1CC1 (stereo not drawn) [N-[2-(cyclopropylcarbamoyl-methyl-amino)ethyl]-N,9-dimethyl-6-(oxan-4-yl)-5,6,7,8-tetrahydrocarbazole-3-carboxamide]	77.5 nM	468 nM	110%
CN(CCN(C)C(=S)NC1CC1)C(=O)c1ccc2c(c1)c1c(n2C)CCC(C2CCOCC2)C1 (stereo not drawn) [N-[2-(cyclopropylthiocarbamoyl-methyl-amino)ethyl]-N,9-dimethyl-6-(oxan-4-yl)-5,6,7,8-tetrahydrocarbazole-3-carboxamide]	9.9 nM	161 nM	106%
CCn1c2c(c3cc(C(=O)N(C)CCCC(=O)NCC(F)F)ccc31)CC(C1CCOCC1)CC2 (stereo not drawn) [N-[3-(2,2-difluoroethylcarbamoyl)propyl]-9-ethyl-N-methyl-6-(oxan-4-yl)-5,6,7,8-tetrahydrocarbazole-3-carboxamide]	45.2 nM	98.3 nM	114%
CN(CCCC(=O)NCCO)C(=O)c1ccc2c(c1)c1c(n2C)CCC(C2CCOCC2)C1 (stereo not drawn) [N-[3-(2-hydroxyethylcarbamoyl)propyl]-N,9-dimethyl-6-(oxan-4-yl)-5,6,7,8-tetrahydrocarbazole-3-carboxamide]	90.9 nM	155 nM	122%
CN(CCCC(=O)NC1CC1)C(=O)c1ccc2c(c1)c1c(n2C)CCC(C2CCOCC2)C1 (stereo not drawn) [N-[3-(cyclopropylcarbamoyl)propyl]-N,9-dimethyl-6-(oxan-4-yl)-5,6,7,8-tetrahydrocarbazole-3-carboxamide]	7.1 nM	16.2 nM	113%
CCN(CCCC(=O)NC1CC1)C(=O)c1ccc2c(c1)c1c(n2C)CCC(C2CCOCC2)C1 (stereo not drawn) [N-[3-(cyclopropylcarbamoyl)propyl]-N-ethyl-9-methyl-6-(oxan-4-yl)-5,6,7,8-tetrahydrocarbazole-3-carboxamide]	2.8 nM	4.9 nM	116%
CCNC(=O)CCCN(C)C(=O)c1ccc2c(c1)c1c(n2CCF)CCC(C2CCOCC2)C1 (stereo not drawn) [N-[3-(ethylcarbamoyl)propyl]-9-(2-fluoroethyl)-N-methyl-6-(oxan-4-yl)-5,6,7,8-tetrahydrocarbazole-3-carboxamide]	237 nM	372 nM	109%
CCNC(=O)CCCN(C)C(=O)c1ccc2c(c1)c1c(n2C)CCC(C2CCOCC2)C1 (stereo not drawn) [N-[3-(ethylcarbamoyl)propyl]-N,9-dimethyl-6-(oxan-4-yl)-5,6,7,8-tetrahydrocarbazole-3-carboxamide]	36.6 nM	63.5 nM	111%
C[C@H](C(=O)NCCF)N(C)C(=O)c1ccc2c(c1)c1c(n2C)CCC(C2CCOCC2)C1 (stereo partly drawn) [N-[(1R)-1-(2-fluoroethylcarbamoyl)ethyl]-N,9-dimethyl-6-(oxan-4-yl)-5,6,7,8-tetrahydrocarbazole-3-carboxamide]	157 nM	353 nM	107%
C[C@H](C(=O)NC1CC1)N(C)C(=O)c1ccc2c(c1)c1c(n2C)CCC(C2CCOCC2)C1 (stereo partly drawn) [N-[(1R)-1-(cyclopropylcarbamoyl)ethyl]-N,9-dimethyl-6-(oxan-4-yl)-5,6,7,8-tetrahydrocarbazole-3-carboxamide]	19.6 nM	29.6 nM	120%
CCNC(=O)[C@@H](C)N(C)C(=O)c1ccc2c(c1)c1c(n2C)CCC(C2CCOCC2)C1 (stereo partly drawn) [N-[(1R)-1-(ethylcarbamoyl)ethyl]-N,9-dimethyl-6-(oxan-4-yl)-5,6,7,8-tetrahydrocarbazole-3-carboxamide]	77.1 nM	237 nM	112%
Cn1c2c(c3cc(C(=O)N4CCC[C@H](NC(=O)C5CC5)C4)ccc31)CC(C1CCOCC1)CC2 (stereo partly drawn) [N-[(3S)-1-[9-methyl-6-(oxan-4-yl)5,6,7,8-tetrahydrocarbazole-3-carbonyl]-3-piperidyl]cyclopropanecarboxamide]	43.4 nM	87.2 nM	119%
Cn1c2c(c3cc(C(=O)N4CC(C(=O)NC5CC5)C4)ccc31)CC(C1CCOCC1)CC2 (stereo not drawn) [N-cyclopropyl-1-[9-methyl-6-(oxan-4-yl)5,6,7,8-tetrahydrocarbazole-3-carbonyl]azetidine-3-carboxamide]	107 nM	274 nM	121%
Cn1c2c(c3cc(C(=O)N4CCCC(C(=O)NC5CC5)C4)ccc31)CC(C1CCOCC1)CC2 (stereo not drawn) [N-cyclopropyl-1-[9-methyl-6-(oxan-4-yl)5,6,7,8-tetrahydrocarbazole-3-carbonyl]piperidine-3-carboxamide]	32.4 nM	128 nM	115%
Cn1c2c(c3cc(C(=O)N4CCC(C(=O)NC5CC5)CC4)ccc31)CC(C1CCOCC1)CC2 (stereo not drawn) [N-cyclopropyl-1-[9-methyl-6-(oxan-4-yl)5,6,7,8-tetrahydrocarbazole-3-carbonyl]piperidine-4-carboxamide]	118 nM	214 nM	102%
Cn1c2c(c3cc(C(=O)N4CCC(C(=O)NC5CC5)C4)ccc31)CC(C1CCOCC1)CC2 (stereo not drawn) [N-cyclopropyl-1-[9-methyl-6-(oxan-4-yl)5,6,7,8-tetrahydrocarbazole-3-carbonyl]pyrrolidine-3-carboxamide]	26 nM	18.5 nM	121%
Cn1c2c(c3cc(C(=O)N4CC[C@H](CC(=O)NC5CC5)C4)ccc31)CC(C1CCOCC1)CC2 (stereo partly drawn) [N-cyclopropyl-2-[(3R)-1-[9-methyl-6-(oxan-4-yl)5,6,7,8-tetrahydrocarbazole-3-carbonyl]pyrrolidin-3-yl]acetamide]	35.5 nM	69.2 nM	115%
CCNC(=O)C1CCN(C(=O)c2ccc3c(c2)c2c(n3C)CCC(C3CCOCC3)C2)C1 (stereo not drawn) [N-ethyl-1-[9-methyl-6-(oxan-4-yl)5,6,7,8-tetrahydrocarbazole-3-carbonyl]pyrrolidine-3-carboxamide]	163 nM	324 nM	119%
CCN(CC(=O)NCC(F)(F)F)C(=O)c1ccc2c(c1)c1c(n2S(=O)(=O)CC)CCC(C2CCOCC2)C1 (stereo not drawn) [N-ethyl-9-ethylsulfonyl-6-(oxan-4-yl)-N-(2,2,2-trifluoroethylcarbamoylmethyl)-5,6,7,8-tetrahydrocarbazole-3-carboxamide]	25.1 nM	51.4 nM	112%
